The results in this text go back to PubChem BioAssay (NCI).

Some test systems named below: SK-MEL-28 melanoma; ACHN renal; LOX IMVI melanoma; EKVX NSCLC; SK-MEL-5 melanoma; UACC-62 melanoma; RPMI-8226 leukemia; SF-268 CNS.
Assay in all cases: NCI anticancer screen, dose series, 48 h

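A five-concentration, 48-hour dose response in 96-well plates underlies each endpoint, interpolated linearly between surrounding concentrations. GI50 marks 50% less growth. Definition used: TGI = concentration required for complete inhibition of growth.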

Regarding `O=S(=O)(NCCCNc1nccc(-c2c(-c3ccc(F)c(O)c3)nc3sccn23)n1)c1ccc(F)cc1`, the GI50 with SK-MEL-28 melanoma was 104 nM; with ACHN renal, 2240 nM; in the assay with LOX IMVI melanoma it was 578 nM; in the assay with EKVX NSCLC, 3100 nM; in the assay on SK-MEL-5 melanoma, 1420 nM. Further, the TGI in the assay on SK-MEL-28 melanoma was above 100000 nM; with ACHN renal it was 8860 nM; with LOX IMVI melanoma it was 5530 nM; in the assay on EKVX NSCLC it was 14900 nM; with SK-MEL-5 melanoma, 2800 nM.

With `CC(=C/C=C/C=C(C)\C=C\C=C(\C)C(=O)O)/C=C/C=C(/C)C(=O)O`, the TGI in the assay on SK-MEL-28 melanoma, in the assay on ACHN renal, in the assay on UACC-62 melanoma, with RPMI-8226 leukemia, in the assay with SF-268 CNS and with LOX IMVI melanoma was above 100000 nM each time. This compound displayed a TGI in the assay with SK-MEL-5 melanoma above 100000 nM.

For the compound `C/C(=N\Nc1cc(C)c2ccccc2n1)c1ccccn1`, the GI50 with SK-MEL-28 melanoma is 362 nM; in the assay with ACHN renal, below 37.4 nM; in the assay on UACC-62 melanoma, 110 nM; with RPMI-8226 leukemia, 112 nM; with SF-268 CNS, 43.3 nM; with LOX IMVI melanoma, 80.7 nM. For the same compound, the GI50 with SK-MEL-5 melanoma is 130 nM. Moreover, the TGI in the assay with SK-MEL-28 melanoma is 1960 nM; with ACHN renal it was 1140 nM; in the assay with UACC-62 melanoma, 631 nM; in the assay with RPMI-8226 leukemia, 2010 nM; in the assay with SF-268 CNS, 1710 nM; with LOX IMVI melanoma, 1310 nM. The same compound displayed a TGI in the assay on SK-MEL-5 melanoma of 1280 nM.

In the case of `CC(C)C[C@H](NC(=O)Cn1ccc(NCc2ccccc2)cc1=O)B(O)O`, the GI50 in the assay on SK-MEL-28 melanoma was 600 nM; with ACHN renal it was 427 nM; in the assay on UACC-62 melanoma, 1600 nM; in the assay with RPMI-8226 leukemia it was 304 nM; with SF-268 CNS, 3570 nM; in the assay on LOX IMVI melanoma, 606 nM. The GI50 in the assay on SK-MEL-5 melanoma is 678 nM. In addition, the TGI in the assay on SK-MEL-28 melanoma was 47000 nM; in the assay with ACHN renal it was above 100000 nM; with UACC-62 melanoma it was 11100 nM; with SF-268 CNS, 27500 nM; in the assay with LOX IMVI melanoma, 2310 nM; in the assay on SK-MEL-5 melanoma it was 2890 nM.

Consider `CC(=O)N1C/C(=C/c2ccc(Cl)cc2)C(=O)/C(=C/c2ccc(Cl)cc2)C1`, for which the GI50 with SK-MEL-28 melanoma is 1540 nM; with ACHN renal it was 769 nM; in the assay with UACC-62 melanoma, 664 nM; in the assay on RPMI-8226 leukemia, 88.9 nM; in the assay on SF-268 CNS it was 1370 nM; in the assay with LOX IMVI melanoma, 184 nM. In the assay on SK-MEL-5 melanoma, the GI50 was 1490 nM. The TGI with SK-MEL-28 melanoma was 3200 nM; in the assay on ACHN renal, 2050 nM; in the assay with UACC-62 melanoma it was 1840 nM; in the assay on RPMI-8226 leukemia, 463 nM; in the assay with SF-268 CNS, 4020 nM; with LOX IMVI melanoma it was 395 nM. The compound also yielded a TGI in the assay with SK-MEL-5 melanoma of 2900 nM.

For `Nc1c2c(c(O)c3c1=C(CO)C=N3)=NCCS2`, the GI50 is 283 nM in the assay with SK-MEL-28 melanoma; 269 nM in the assay with ACHN renal; 156 nM with UACC-62 melanoma; 583 nM in the assay with RPMI-8226 leukemia; 291 nM in the assay with SF-268 CNS; 311 nM in the assay with EKVX NSCLC. Further, the GI50 with SK-MEL-5 melanoma was 21.5 nM. Also, the TGI in the assay with SK-MEL-28 melanoma was determined as 804 nM; with ACHN renal, 844 nM; with UACC-62 melanoma it was 330 nM; in the assay on RPMI-8226 leukemia, 3120 nM; in the assay on SF-268 CNS, 1050 nM; in the assay on EKVX NSCLC it was 1200 nM. This compound also yielded a TGI in the assay with SK-MEL-5 melanoma of 54.3 nM.

For `C#CC1(OC(C)=O)CCC2C3CC=C4C=C(OC(C)=O)CCC4(C)C3CCC21C` (stereo not given), the TGI amounted to 53600 nM in the assay on SK-MEL-28 melanoma; 70700 nM in the assay on ACHN renal; 44500 nM in the assay with UACC-62 melanoma; 48400 nM in the assay with SF-268 CNS; 53200 nM with LOX IMVI melanoma; 80000 nM in the assay with EKVX NSCLC. The compound further showed a TGI with SK-MEL-5 melanoma of 34100 nM.

On to `NC1CCC(Nc2nc(NCc3ccc(-c4ccccc4O)nc3)c3ncn(C4CCCC4)c3n2)CC1` (stereo not given), for which the GI50 with SK-MEL-28 melanoma is 21.1 nM; with ACHN renal, 140 nM; with UACC-62 melanoma it was below 17.4 nM; with RPMI-8226 leukemia, below 10 nM; in the assay on SF-268 CNS it was below 10 nM; with EKVX NSCLC it was 29.1 nM. Further, the GI50 with SK-MEL-5 melanoma was 31.3 nM. Besides, the TGI came to 71.3 nM in the assay with SK-MEL-28 melanoma; 1070 nM in the assay with ACHN renal; 59.3 nM in the assay on UACC-62 melanoma; 47.9 nM in the assay on RPMI-8226 leukemia; 344 nM with SF-268 CNS; 474 nM with EKVX NSCLC. The compound also showed a TGI in the assay on SK-MEL-5 melanoma of 1170 nM.

On to `Cc1ccc(NC2=C(Cl)C(=O)N(Cc3ccc(Cl)cc3)C2=O)cc1O`, for which the GI50 is 14800 nM with SK-MEL-28 melanoma; 17500 nM with UACC-62 melanoma; 2040 nM with RPMI-8226 leukemia; 5070 nM in the assay on SF-268 CNS; 4090 nM in the assay with LOX IMVI melanoma; 12600 nM with SK-MEL-5 melanoma. Further, the TGI was 44400 nM in the assay on SK-MEL-28 melanoma; 39400 nM with UACC-62 melanoma; 14800 nM in the assay with RPMI-8226 leukemia; 21200 nM in the assay with SF-268 CNS; 32100 nM with LOX IMVI melanoma; 28000 nM in the assay on SK-MEL-5 melanoma.
